Activity calls are given as the source filed them.
Tests used:
Albumin = Albumin (Bos taurus, UniProt P02769); assay: Counterscreen for inhibitors of T-cell receptor (TCR)-CD3 interaction: Fluorescence-based biochemical high throughput dose response assay to identify inhibitors of T-cell receptor (TCR)-CD3 interaction using a TAMRA-labeled BSA probe.; assay type: functional
[1] = NIH-3T3 fibroblast cytotoxicity, dose response, cytotoxicity control, cell-based, fluorescence, Alamar Blue, secondary assay (AID 2327); assay type: functional;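 note: NIH-3T3 mouse fibroblasts cultured with fluconazole at 8 µg/mL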
[2] = C. albicans growth with fluconazole, confirmation, fluorescence, retest (AID 2467); assay type: functional, cell-based
[3] = target: T1, Fructose-bisphosphate aldolase (Mycobacterium tuberculosis, UniProt P9WQA3); assay: Fluorescence-based biochemical high throughput dose response assay for inhibitors of the fructose-bisphosphate aldolase (FBA) of M. tuberculosis.; assay type: functional
T1 sequence (P9WQA3 whole entry): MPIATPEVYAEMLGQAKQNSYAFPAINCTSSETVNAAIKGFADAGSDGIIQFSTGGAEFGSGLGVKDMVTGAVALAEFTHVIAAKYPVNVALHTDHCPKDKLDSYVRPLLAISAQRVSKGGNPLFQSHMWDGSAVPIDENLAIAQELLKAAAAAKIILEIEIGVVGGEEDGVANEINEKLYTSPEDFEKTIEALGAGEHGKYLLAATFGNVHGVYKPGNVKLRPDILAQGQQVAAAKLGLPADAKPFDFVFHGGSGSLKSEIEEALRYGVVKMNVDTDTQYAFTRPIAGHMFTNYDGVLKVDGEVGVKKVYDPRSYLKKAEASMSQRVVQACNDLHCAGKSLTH

[4] = target: T2, Long-chain-fatty-acid--AMP ligase FadD28 (Mycobacterium tuberculosis, UniProt P9WQ59); assay: Fluorescence polarization aasay to screen for inhibitors that compete for the binding of FadD28 to a bisubstrate Measured in Biochemical System Using Plate Reader - 2147-01_Inhibitor_Dose_CherryPick_Activity.; assay type: functional, Mycobacterium tuberculosis H37Rv
T2 sequence (P9WQ59 whole entry): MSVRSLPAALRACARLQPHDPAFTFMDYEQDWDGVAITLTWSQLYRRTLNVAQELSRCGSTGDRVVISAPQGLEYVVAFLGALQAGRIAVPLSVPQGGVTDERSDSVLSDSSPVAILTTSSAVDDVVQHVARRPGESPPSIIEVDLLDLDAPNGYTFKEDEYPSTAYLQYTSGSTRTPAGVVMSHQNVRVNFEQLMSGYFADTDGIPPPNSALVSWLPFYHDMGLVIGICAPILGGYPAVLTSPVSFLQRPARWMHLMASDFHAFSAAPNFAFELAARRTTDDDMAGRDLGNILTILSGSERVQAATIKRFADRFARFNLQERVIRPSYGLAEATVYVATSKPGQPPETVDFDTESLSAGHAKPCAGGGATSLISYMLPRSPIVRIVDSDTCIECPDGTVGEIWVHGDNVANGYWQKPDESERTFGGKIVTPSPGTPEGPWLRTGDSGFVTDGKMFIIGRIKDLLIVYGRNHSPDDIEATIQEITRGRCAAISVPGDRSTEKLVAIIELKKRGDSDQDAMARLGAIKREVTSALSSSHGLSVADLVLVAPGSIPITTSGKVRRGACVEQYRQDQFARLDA

[5] = target: 5-hydroxytryptamine receptor 2A (Mus musculus, UniProt P35363); assay type: functional, cell-based;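 note: CHO-K1 cells with tagged receptor and beta-arrestin; agonist potency measured as compound-induced activation of the receptor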
Mu-type opioid receptor = Mu-type opioid receptor (Homo sapiens, UniProt P35372); assay type: functional, cell-based;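 note: U2OS cells with beta-arrestin recruitment to OPRM1 by beta-gal complementation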
[6] = HeLa cell cytotoxicity, dose response, cytotoxicity control for MgcRacGAP inhibitor project (AID 624300); assay type: functional
[7] = target: T3, DNA repair and recombination protein RAD54-like (Homo sapiens, UniProt Q92698); assay: inhibitors of human RAD54 branch migration, confirmation, biochemical, fluorescence, cherry-picked samples, dose series (AID 651657); assay type: functional
T3 sequence (Q92698 whole entry): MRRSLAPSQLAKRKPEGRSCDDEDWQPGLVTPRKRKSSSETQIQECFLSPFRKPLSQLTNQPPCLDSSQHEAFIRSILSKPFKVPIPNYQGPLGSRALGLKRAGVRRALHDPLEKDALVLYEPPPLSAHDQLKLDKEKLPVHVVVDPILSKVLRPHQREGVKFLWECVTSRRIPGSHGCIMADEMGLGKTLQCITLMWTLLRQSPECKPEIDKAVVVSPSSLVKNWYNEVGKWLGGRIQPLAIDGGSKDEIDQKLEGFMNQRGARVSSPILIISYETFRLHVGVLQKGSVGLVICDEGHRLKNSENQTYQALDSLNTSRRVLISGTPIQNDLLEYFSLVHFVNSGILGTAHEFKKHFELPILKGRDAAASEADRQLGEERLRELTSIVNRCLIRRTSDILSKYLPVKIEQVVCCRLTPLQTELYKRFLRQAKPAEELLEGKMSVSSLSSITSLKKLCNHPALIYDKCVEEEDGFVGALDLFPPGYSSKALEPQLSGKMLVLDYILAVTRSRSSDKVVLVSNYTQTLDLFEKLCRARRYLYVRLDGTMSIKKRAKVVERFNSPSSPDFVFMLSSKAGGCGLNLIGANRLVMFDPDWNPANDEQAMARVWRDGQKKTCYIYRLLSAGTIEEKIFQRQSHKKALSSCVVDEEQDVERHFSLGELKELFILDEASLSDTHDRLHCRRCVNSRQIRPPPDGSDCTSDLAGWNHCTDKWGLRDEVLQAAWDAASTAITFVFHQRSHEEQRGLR

Large T antigen = Large T antigen (Simian virus 40, UniProt P03070); assay type: functional, Betapolyomavirus macacae;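 note: Confirmatory-stage PubChem screen for compounds that inhibit SV40 T antigen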
[8] = Luminescence Cell-Based Dose Confirmation HTS to Identify Inhibitors of Platelet Dense Granule Release. [Related pubchem assays: 1663 (Primary HTS), 1678 (Summary of Project)]; assay type: functional
[9] = target: T4, Rac GTPase-activating protein 1 (Homo sapiens, UniProt Q9H0H5); assay: MgcRacGAP GTPase-activating activity inhibitors, confirmation, biochemical, ADP Hunter fluorescence, primary and confirmatory (AID 624330); assay type: functional
T4 sequence (Q9H0H5 whole entry): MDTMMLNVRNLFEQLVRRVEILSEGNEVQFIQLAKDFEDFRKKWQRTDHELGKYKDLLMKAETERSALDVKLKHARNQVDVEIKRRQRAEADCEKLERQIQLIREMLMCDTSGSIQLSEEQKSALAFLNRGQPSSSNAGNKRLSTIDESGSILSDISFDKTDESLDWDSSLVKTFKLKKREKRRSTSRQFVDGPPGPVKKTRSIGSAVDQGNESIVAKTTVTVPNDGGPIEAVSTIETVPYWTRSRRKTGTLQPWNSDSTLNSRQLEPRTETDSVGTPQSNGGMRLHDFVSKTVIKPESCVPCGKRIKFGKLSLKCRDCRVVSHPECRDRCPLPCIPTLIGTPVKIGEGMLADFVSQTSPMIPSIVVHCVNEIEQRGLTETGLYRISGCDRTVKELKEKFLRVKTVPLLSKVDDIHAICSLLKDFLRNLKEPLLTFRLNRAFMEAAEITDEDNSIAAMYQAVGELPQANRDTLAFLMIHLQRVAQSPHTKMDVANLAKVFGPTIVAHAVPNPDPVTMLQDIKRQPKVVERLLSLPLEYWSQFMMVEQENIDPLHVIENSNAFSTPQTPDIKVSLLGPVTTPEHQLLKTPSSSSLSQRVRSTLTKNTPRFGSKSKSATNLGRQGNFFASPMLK

[10] = target: Luciferin 4-monooxygenase (Photinus pyralis, UniProt P08659); assay: firefly luciferase enzyme inhibitors, dose response, biochemical, luminescence (AID 1891)
[11] = miR-122 activators in hepatoma reporter cells, dose response, cell-based, Huh7 psiCHECK-miR122, Renilla luciferase, cherry-picked (AID 651956); assay type: functional;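 note: huh7 hepatoma cells stably carrying a psiCHECK-2 miR-122 sensor plasmid; renilla luciferase signal reporting endogenous miR-122 activity after 48 h compound exposure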

Sequence of 5-hydroxytryptamine receptor 2A (P35363 whole entry): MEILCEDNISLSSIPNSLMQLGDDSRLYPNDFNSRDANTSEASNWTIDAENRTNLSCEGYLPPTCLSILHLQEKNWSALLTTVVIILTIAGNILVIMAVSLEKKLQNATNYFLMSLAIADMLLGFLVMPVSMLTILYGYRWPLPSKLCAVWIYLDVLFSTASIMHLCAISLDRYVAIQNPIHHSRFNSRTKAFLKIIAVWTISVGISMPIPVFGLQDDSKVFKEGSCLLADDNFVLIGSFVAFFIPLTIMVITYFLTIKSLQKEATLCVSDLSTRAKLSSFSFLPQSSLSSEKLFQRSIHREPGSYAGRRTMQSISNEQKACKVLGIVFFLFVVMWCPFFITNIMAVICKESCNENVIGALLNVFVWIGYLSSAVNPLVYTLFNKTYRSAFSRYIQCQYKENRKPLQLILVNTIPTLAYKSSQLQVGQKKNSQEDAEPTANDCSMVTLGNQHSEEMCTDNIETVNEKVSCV
Sequence of Mu-type opioid receptor (P35372 whole entry): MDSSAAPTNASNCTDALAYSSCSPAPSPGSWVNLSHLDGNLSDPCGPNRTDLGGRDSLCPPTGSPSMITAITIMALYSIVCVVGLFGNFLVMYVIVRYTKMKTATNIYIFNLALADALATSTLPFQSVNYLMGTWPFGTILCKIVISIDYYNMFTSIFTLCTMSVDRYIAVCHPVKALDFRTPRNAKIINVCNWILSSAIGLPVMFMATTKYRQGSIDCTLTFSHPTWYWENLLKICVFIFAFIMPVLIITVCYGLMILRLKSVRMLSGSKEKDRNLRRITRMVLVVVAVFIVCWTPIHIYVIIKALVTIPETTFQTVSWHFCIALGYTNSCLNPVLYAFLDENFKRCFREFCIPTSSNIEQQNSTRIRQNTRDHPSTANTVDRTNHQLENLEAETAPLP
Sequence of Albumin (P02769 whole entry): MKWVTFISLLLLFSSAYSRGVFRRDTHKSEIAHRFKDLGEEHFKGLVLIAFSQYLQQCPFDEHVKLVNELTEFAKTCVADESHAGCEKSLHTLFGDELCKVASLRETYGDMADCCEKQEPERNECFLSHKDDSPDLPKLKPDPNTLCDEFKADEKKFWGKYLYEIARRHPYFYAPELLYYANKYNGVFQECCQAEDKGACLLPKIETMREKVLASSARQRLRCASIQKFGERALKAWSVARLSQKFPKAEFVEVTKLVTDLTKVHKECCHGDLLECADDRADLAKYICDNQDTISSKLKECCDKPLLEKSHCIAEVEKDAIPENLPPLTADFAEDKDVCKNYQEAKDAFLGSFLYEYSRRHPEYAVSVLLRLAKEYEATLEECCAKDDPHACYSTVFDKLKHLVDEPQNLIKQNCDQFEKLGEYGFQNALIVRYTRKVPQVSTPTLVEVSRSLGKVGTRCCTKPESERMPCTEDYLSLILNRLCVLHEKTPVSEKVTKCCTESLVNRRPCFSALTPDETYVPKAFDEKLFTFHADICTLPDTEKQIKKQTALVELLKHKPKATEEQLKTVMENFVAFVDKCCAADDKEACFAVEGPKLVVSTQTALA
Sequence of Large T antigen (P03070 whole entry): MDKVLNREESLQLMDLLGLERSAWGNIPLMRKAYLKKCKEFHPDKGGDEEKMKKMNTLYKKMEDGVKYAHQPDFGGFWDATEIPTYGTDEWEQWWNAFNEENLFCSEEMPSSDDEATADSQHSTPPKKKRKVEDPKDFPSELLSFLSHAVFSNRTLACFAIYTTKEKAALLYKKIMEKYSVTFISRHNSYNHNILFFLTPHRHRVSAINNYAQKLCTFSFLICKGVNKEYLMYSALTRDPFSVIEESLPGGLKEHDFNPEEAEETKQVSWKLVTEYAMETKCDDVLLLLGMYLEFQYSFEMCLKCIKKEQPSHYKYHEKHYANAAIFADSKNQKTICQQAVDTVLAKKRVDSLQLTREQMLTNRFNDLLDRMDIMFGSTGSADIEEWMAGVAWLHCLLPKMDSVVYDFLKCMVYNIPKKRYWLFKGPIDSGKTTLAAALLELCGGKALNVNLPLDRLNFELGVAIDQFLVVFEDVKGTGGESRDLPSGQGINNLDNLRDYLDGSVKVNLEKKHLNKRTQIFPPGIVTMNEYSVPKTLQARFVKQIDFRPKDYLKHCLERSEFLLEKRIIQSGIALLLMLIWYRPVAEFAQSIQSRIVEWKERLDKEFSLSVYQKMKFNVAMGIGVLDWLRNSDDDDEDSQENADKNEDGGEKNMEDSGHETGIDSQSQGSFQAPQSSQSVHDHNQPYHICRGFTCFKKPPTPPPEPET
Sequence of Luciferin 4-monooxygenase (P08659 whole entry): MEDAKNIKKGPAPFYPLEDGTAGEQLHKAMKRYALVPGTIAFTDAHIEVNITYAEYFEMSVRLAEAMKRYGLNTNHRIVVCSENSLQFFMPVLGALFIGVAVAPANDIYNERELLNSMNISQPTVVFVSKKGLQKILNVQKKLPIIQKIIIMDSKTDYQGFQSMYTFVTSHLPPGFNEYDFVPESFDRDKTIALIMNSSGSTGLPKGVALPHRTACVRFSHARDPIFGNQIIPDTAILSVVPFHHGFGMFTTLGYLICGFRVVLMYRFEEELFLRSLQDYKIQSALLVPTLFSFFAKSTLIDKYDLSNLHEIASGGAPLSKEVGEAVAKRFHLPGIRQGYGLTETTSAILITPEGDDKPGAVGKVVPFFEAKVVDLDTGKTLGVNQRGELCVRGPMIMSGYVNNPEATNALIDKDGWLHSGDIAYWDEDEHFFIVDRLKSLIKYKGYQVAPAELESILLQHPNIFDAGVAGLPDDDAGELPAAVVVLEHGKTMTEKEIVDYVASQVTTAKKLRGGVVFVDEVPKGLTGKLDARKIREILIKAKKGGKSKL

CCOc1ccc(NC(=O)NNC(=O)c2ccc3ccccc3c2O)cc1
IC50 (Albumin): > 94.1 µM (inactive)
EC50 [1]: > 150 µM (inactive)
EC50 [2]: 2.58 µM (active)
IC50 [3]: 3.15 µM (active)

CN(C)S(=O)(=O)c1cccc(NC(=O)CCc2c[nH]c3ccccc23)c1
AC50 [4]: 97.9 µM (active)

CC(=O)NC(CC(=O)NNC(=O)c1cc2ccccc2cc1O)c1ccccc1 (stereo not drawn)
IC50 (Albumin): > 94.1 µM (inactive)
EC50 [1]: > 160 µM (inactive)
EC50 [2]: > 38 µM (not active)

Cc1nc(-c2nc(-c3c(C(=O)NNC(=O)Nc4cccc(Cl)c4)noc3C)cs2)cs1
EC50 [5]: 6.23 µM (active)
EC50 (Mu-type opioid receptor): 92.5 µM (inactive)

CNC(=O)Oc1ccc(-c2cn3cc(C)ccc3n2)cc1
CC50 [6]: 100 µM (active)

Cc1cccc(N2CCN(CC(O)COc3ccc4ccccc4c3)CC2)c1 (stereo not drawn)
EC50 [5]: 76 µM (inactive)
EC50 (Mu-type opioid receptor): 92.4 µM (inactive)

CN1CCN(c2ccc(CNC(=O)C3Cc4c(-c5ccc(Cl)cc5)ccnc4O3)cc2)CC1 (stereo not drawn)
AC50 [7]: 72.1 µM (active)

COc1cc(/C=N/Nc2nncn2/N=C/c2ccc(O)c(OC)c2)ccc1O
IC50 (Large T antigen): 12.9 µM (active)
EC50 [8]: 2.63 µM (active)
IC50 [9]: 43.6 µM (active)
EC50 [10]: 0.658 µM (active)
CC50 [6]: 10.7 µM (active)

CN(C)C(=O)c1ccc(-c2ccc([C@H]3[C@@H](CO)N4CCCCN(C(=O)C5CCCC5)C[C@@H]34)cc2)cc1
AC50 [11]: 49 µM (active)

CC(C)CC#Cc1ccc2c(c1)O[C@H](CN(C)C(=O)c1cnccn1)[C@H](C)CN([C@@H](C)CO)S2(=O)=O
AC50 [11]: 10.5 µM (active)

COc1cccc(OC)c1OCCN1CCN(C(=O)c2ccco2)CC1
EC50 [5]: 3.12 µM (active)
EC50 (Mu-type opioid receptor): 92.4 µM (inactive)

— ChEMBL document CHEMBL1201862, “PubChem BioAssay data set” (2004)
